Assay results reported in patent US8287911B2, “Endotoxin adsorbent for the prevention and treatment of autoimmune diseases” (Chondrex Inc., priority 2006, dated 2012).
Several values for one entry are separate records, joined by “and”; a condition that tells them apart may be missing. Equal entries are not always repeated. Where two headings read alike, the source gives them in different places.

Legend:
[1] = Endotoxin adsorption and elimination capacity (2), LPS-binding capacity from OD210 of supernatant; parameters: species or system E. coli O-111; conditions: for Endotoxin-Binding capacity (LP5 mg/g*): converted to dry weight of LPS per gram resin; for Endotoxin-Binding Capacity: per gram resin, method of Example 11
Method: The LPS binding capacity of the endotoxin-adsorbent in a test tube was determined according to the method described in “endotoxin test procedures” in Japanese Pharmacopoeia, in addition to a simple assay method of LPS by measuring OD values, which was developed during this invention. The experimental procedures and results are shown in EXAMPLE 10 and 11 in detail.
The endotoxin-binding capacity of polymixin B conjugates was also studied. LPS (Sigma L4130) was dissolved in pyrogen-free water at 0.2 mg/mL, and 4 mL of this solution was added to a test tube containing 20.6 mg of RPMB-1, and incubated at 37° C. with stirring. The supernatant was collected every 30 minutes by centrifugation and the OD values at 210 nm was determined. The OD210 value was dropped from 1 to 0.6 within the first 30 minutes of incubation and remained unchanged afterwards. […] Therefore, it was assumed that 20.6 mg of LPS adsorbent added in the first test tube was saturated with LPS. Accordingly, an LPS adsorption capacity of RPMB-1 was calculated based on the OD value changes of LPS solution. Since the LPS preparation used in this experiment was not pure and contaminated by DNA and proteins, it was assumed that the final OD value of 0.4 reflected the OD value of such contaminants. Based on this assumption, it was calculated that 1 g of RPMB is capable of binding approximately 25.9 mg of LPS (Sigma L4130) using the following formula: (0.8 mg×0.4/0.6)/0.0206=25.9 mg Since the endotoxin unit of this LPS preparation is 1.1×10^6 EU/mg, it was calculated that 1 g of RPMB-1 is capable of binding 29×10^6 EU of endotoxin.
Polymixin B-conjugated resins prepared in Examples 1-7 were analyzed for their particle size distribution by the method described in Example 9 and assayed for the endotoxin-binding capacity by the method described in Example 11 to study the relationship between particle size and LPS-binding capacity. AffiPrep poplymixin B (BioRad, USA) was used as a reference.
The endotoxin-binding capacity of individual batches of endotoxin-adsorbents prepared by conjugating with 3 million units of polymixin B was compared and expressed as endotoxin units (EU) per gram weight of resin as well as LPS weight per gram resin. The weight of LPS was obtained by converting the EU values based on the EU value per mg of LPS preparation (Sigma L4130, LPS preparation from E. coli O-111, B4, by trichloroacetic acid extraction) used for this experiment.

[2] = Particle size distribution, microscopic method (Japanese Pharmacopoeia); assay type: physicochemical; conditions: for 50% Particle Size: resins of Examples 1-7 and reference, method of Example 9
Method: The particle size of the endotoxin-adsorbent was determined based on the particle size distribution method. The particle distribution analysis was performed according to “The method for determining particle size distribution. Method 1: Microscopic method” in the second supplement of the general test procedures, section 65, Japanese Pharmacopoeia, 13th Issue. The 50% particle size (μm) was explained as the diameter of particles of the corresponding values of the accumulative volume of particles is 50%.
The particle size distribution was measured according to “Measurement of Particle Size Distribution. Method 1: Microscopic method” in the second supplement of the general test procedures, Section 65, Japanese Pharmacopoeia, 13th Issue. The microscope and camera used for this experiment was Nikon ECLIPSE E600 and Victor KY-F55B, respectively. The collected data was analyzed using Nano Hunter NS2K-Pro. The 50% particle size of RPMB was 213 μm, and the content of small particles not more than 5 μm in a diameter was 0%.

[3] = test system: autoantibody mediated, LPS-induced arthritis; assay: Autoantibody mediated, LPS-induced arthritis model; assay type: in vivo, DBA/1JNCrj mice; conditions: experiment 2; for Severity of Arthritis (score) / Incidence of Arthritis: 10 mg/mouse oral; for Severity of Arthritis (score): average of 5 mice, maximum 16 per mouse; for Incidence of Arthritis: mice with arthritis/5; for effect on development of arthritis (in words): dose of 10 mg per mouse
[4] = test system: autoantibody mediated, LPS-induced arthritis; assay: Autoantibody mediated, LPS-induced arthritis model; assay type: in vivo, DBA/1JNCrj mice; conditions: experiment 1, day 7; for Severity of Arthritis (score): average of 5 mice, maximum 16 per mouse; for Incidence of Arthritis: mice with arthritis/5
From the text: The therapeutic effect of the endotoxin-adsorbent on autoimmune diseases can be determined in the mouse arthritis model as described in our previous invention, JP-A 2006-151914. Briefly, arthritis can be induced in 100% of mice by IP injection of enough amounts of anti-type II collagen monoclonal antibody cocktail (Chondrex Inc., Redmond, Wash., USA) within 3 days (Terato K et al. Induction of arthritis with monoclonal antibodies to collagen. J. Immunol. 148:2103-2108, 1992). By reducing the dose of the monoclonal antibody cocktail to 2 mg, all mice remained normal without developing arthritis. However, oral administration of 3 mg of LPS on 3 consecutive days from day 0, day 1, day 2 […] into these mice induced clinically apparent arthritis, which reached the peak on day 6-7. Furthermore, one group of mice was co-administered with indomethasin and ovoinhibitor, a protease-inhibitor purified from egg white. The combination of indomethasin and ovoinhibitor was used to increase the mucosal permeability of gastro-intestinal mucosa. In these mice, the effect of LPS was more significant, and more severe arthritis was induced by oral administration of a same dose of LPS. Using this arthritis model induced by a combination of monoclonal antibody and LPS, the therapeutic effect of the endotoxin-adsorbent can be determined. The benefit of this model is multifold: time of experimentation is short compared with an authentic collagen-induced arthritis model, the standard deviation of severity of arthritis among individual mice is much less, and the effect of the LPS-adsorbent is clearly determined.
DBA/1JNCrj mice (Japan Charles River) were divided into 5 groups (G1-G5, 5 mice per group). In order to increase the mucosal permeability, all mice received 40 μg of indomethasin (Sigma) and 2 mg of ovomucoid (Sigma) for 5 consecutive days from day −6 to −2 by the oral route. On day 0, all mice received an IV injection of 0.2 mL of arthritogenic monoclonal antibody cocktail (10 mg/mL). Endotoxin derived from E. coli O-111 (Phenol extracted LPS, Sigma) was dissolved in PBS at 7.5 mg/mL, and 0.2 mL of this solution was administered into G1-G4 mice by the oral route for 3 consecutive days from day 0 to 2. Endotoxin-adsorbent, RPMB-1, was suspended in distilled water at 100 mg/mL, and deaerated by a vacuum pump to keep the particles in uniform suspension by preventing the aggregation of the particles. The RPMB-1 suspension was administered to mice at doses of 0.125 mL (G2), 0.25 mL (G3) and 0.5 mL (G4) twice a day for 4 consecutive days from day 0 to 3 after LPS administration. G1 received 0.25 mL of water alone. Mice in G5, a positive control of arthritis, received IP injection of 0.1 mL of LPS solution (0.5 mg/mL in PBS) on day 3.
Severity of arthritis was scored by 5 grades, 0: normal without any swelling, 1: clinically apparent swelling of one digit, 2: moderate redness and swelling of more than 2 digits or moderate redness and swelling of the entire paw, 3: severe redness and swelling of the entire paws, and 4: maximum inflamed limb with involvement of multiple joints. The sum of the arthritis score (maximum 16 per mouse) of individual animals was calculated. The effect of the endotoxin-adsorbent was calculated based on the average score of 5 mice using the following equation: Suppression of arthritis(%)=(1−Average score of test group/Average score of control group)×100
Since the arthritis scores reached a maximum on day 7, the effect of the endotoxin-adsorbent was calculated using the scores on day 7. The suppression of arthritis by RPMB prepared in EXAMPLE 2 at 25 mg, 50 mg and 100 mg per mouse by oral administration is shown in Table 3.

[5] = assay type: binding, E. coli O-111; conditions: for LPS Activity Remaining, 10 mm / LPS Activity Remaining, 20 mm / LPS Activity Remaining, Before: 1 mL LPS 5 μg/mL; for LPS Activity Remaining, 10 mm / LPS Activity Remaining, 20 mm: 37° C.; for LPS Activity Remaining, 10 mm: 10 minutes after adding resin; for LPS Activity Remaining, 20 mm: 20 minutes after adding resin; for LPS Activity Remaining, Before: supernatant before adding resin (baseline)
Method: Endotoxin was assayed by an end point colorimetric assay method using Endospecy-ES24S kit (Seikagaku Kogyo, Japan). Lipopolysaccharide (LPS) from E. coli O-111 (Sigma L4130) was dissolved in pyrogen-free water at 5 μg/mL. One mL of this LPS solution was mixed with 50 μg and 100 μg of RPMB-1, and 100 μg of polymixin B-unconjugated resin (control) and incubated at 37° C. with stirring. Endotoxin levels were determined in the supernatant before, 10 and 20 minutes after adding the resins.

Substance	Endotoxin-Binding capacity (LP5 mg/g*) [1] [mg/g]	Endotoxin-Binding Capacity [1]	50% Particle Size [2] [μm]	Severity of Arthritis (score) [3] [score]	Incidence of Arthritis [3]	effect on development of arthritis (in words) [3]	also measured
Weakly Acidic Cation-Exchange Resin-Polymixin B Conjugate [4/300]	6.3	7.2 × 10^6 EU/g	400	–	–	–	–
Weakly Acidic Cation-Exchange Resin-Polymixin B Conjugate [1/300]	6.7	7.7 × 10^6 EU/g	400	–	–	–	–
Epoxyacryl Resin-Polymixin B Conjugate [RPMB-2]	105	120 × 10^6 EU/g	32	0 ± 0	0/5	suppressed the development of arthritis almost completely	–
Weakly Acidic Cation-Exchange Resin-Polymixin B Conjugate [1M/300]	120	136.3 × 10^6 EU/g	29	0 ± 0	0/5	suppressed the development of arthritis almost completely	–
Epoxyacryl Resin-Polymixin B Conjugate [RPMB]	17.5	20 × 10^6 EU/g	213	–	–	–	LPS bound by 1 g of resin ([1]; per 1 g resin, calculated from OD value changes, (0.8 mg×0.4/0.6)/0.0206): approximately 25.9 mg; Distribution of Particle Size: 10% Diameter ([2]; 1006 particles analyzed): 160 (μm); Distribution of Particle Size: 90% Diameter ([2]; 1006 particles analyzed): 266 (μm); Distribution of Particle Size: Average Diameter ([2]; 1006 particles analyzed): 197 (μm); content of small particles not more than 5 μm in a diameter ([2]; 1006 particles analyzed): 0%
Epoxyacryl Resin-Polymixin B Conjugate [RPMB-1]	26.5	29 × 10^6 EU/g	32	–	–	–	Severity of Arthritis (score) ([4]; 25 mg/mouse oral): 9 score and 6.4 ± 1.8 score; Incidence of Arthritis ([4]; 25 mg/mouse oral): 4 out of 5 and 4/5; Severity of Arthritis (score) ([4]; 50 mg/mouse oral): 2 score and 2 ± 2.8 score; Incidence of Arthritis ([4]; 50 mg/mouse oral): 2 out of 5 and 2/5; Severity of Arthritis (score) ([4]; 100 mg/mouse oral): 0 ± 0 score; Incidence of Arthritis ([4]; 100 mg/mouse oral): None of the five mice and 0/5; OD value of supernatant after adding fresh resin ([1]; 20.5 mg fresh resin added to the supernatant, reduced from 0.6): 0.4; OD210 value of supernatant ([1]; 20.6 mg resin in 4 mL LPS 0.2 mg/mL, 37° C., within first 30 minutes, dropped from 1): 0.6; endotoxin bound by 1 g of resin ([1]; per 1 g resin, calculated with 1.1×10^6 EU/mg LPS): 29×10^6 EU; LPS Activity Remaining, 10 mm ([5]; resin amount 50 μg): 2403 EU/mL; LPS Activity Remaining, 20 mm ([5]; resin amount 50 μg): 1207 EU/mL; LPS Activity Remaining, Before ([5]; resin amount 50 μg): 5632 EU/mL; LPS Activity Remaining, 10 mm ([5]; resin amount 100 μg): 1004 EU/mL; LPS Activity Remaining, 20 mm ([5]; resin amount 100 μg): 170 EU/mL; LPS Activity Remaining, Before ([5]; resin amount 100 μg): 5526 EU/mL; LPS adsorption (in words) ([5]; versus polymixin B-unconjugated control resin): specifically adsorbed
Weakly Acidic Cation-Exchange Resin-Polymixin B Conjugate [4M/300]	30	29.5 × 10^6 EU/g	26	0.8 ± 1.8	1/5	suppressed the development of arthritis almost completely	–
